Values of other authors in patent US20240316072A1, “THERAPEUTIC COMPOSITIONS, […] METHODS OF PREPARATION AND USE THEREOF” (Unique Flower LLC, priority 2023, published 2024).

Conditions: administration of β-Myrcene in the amount of 0.5 mg/g or more; generally understood

C=CC(=C)CCC=C(C)C [β-Myrcene]
effect in a subject: heavy, narcotic, “couch lock” effect
